As a reminder, the IC50 is the point on the concentration scale where inhibition reaches its midpoint.

The source of these data is US9133122B2, “Amide compounds, compositions and uses thereof” (EVOTEC AG, priority 2008, dated 2015).

Each structure is given as a SMILES string.

One experiment deals with T1, hP2X2/3H (Homo sapiens, UniProt P56373+Q9UBL9).
T1 construct: expressed in transfected cells
T1 sequence (P56373 1-397): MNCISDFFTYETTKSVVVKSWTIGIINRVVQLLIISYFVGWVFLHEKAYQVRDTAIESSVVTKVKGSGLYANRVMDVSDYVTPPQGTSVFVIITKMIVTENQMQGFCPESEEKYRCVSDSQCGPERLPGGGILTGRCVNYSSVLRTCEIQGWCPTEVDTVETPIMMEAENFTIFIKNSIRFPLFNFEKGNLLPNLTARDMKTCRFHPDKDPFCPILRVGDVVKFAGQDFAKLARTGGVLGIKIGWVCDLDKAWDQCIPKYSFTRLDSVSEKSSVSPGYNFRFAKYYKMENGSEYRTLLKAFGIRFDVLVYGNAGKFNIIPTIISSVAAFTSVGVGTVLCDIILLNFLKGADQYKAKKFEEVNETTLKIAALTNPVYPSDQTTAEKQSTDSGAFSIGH
T1 sequence (Q9UBL9 1-471): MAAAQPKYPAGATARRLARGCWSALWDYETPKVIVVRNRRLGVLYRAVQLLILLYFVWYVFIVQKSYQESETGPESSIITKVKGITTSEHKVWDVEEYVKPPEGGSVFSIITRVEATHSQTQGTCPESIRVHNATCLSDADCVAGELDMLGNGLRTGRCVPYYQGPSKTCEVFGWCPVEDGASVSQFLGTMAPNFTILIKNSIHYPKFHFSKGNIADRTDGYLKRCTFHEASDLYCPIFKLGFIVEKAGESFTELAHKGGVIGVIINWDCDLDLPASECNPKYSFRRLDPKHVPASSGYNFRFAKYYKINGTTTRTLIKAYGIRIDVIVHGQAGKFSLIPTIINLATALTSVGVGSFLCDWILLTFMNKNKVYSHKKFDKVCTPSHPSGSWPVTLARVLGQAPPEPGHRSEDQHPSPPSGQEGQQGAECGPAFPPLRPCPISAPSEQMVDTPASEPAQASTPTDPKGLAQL
The experiment can be described thus: Calcium uptake assay (Ca influx), P2X antagonist assay, P2X2/3 heteromer. The class given is cell-based. Conditions: inhibition of agonist-induced calcium influx. The text has this: (§1) Human P2X3 (Accession no. NM_002559), P2X2 (Accession no. NM_170682) and Rat P2X3 (Accession no. NM_031075) and P2X2 (Accession no. NM_053656) are cloned into a mammalian expression vector (e.g., pcDNAS/TO or pcDNA3 Invitrogen). The human P2X2/3 chimera clone is created as described by Neelands et al, and then cloned into an expression vector as above. Receptors are expressed in cells (e.g., HEK293 or 1321N1 (obtained from the ECACC)) via transient transfection using standard lipid mediated transfection, or by creation of stable transfectants for each receptor. For expression of the P2X2/3 heteromeric receptor, the P2X3 expression vector is stably transfected into a cell line already stably expressing P2X2. P2X2/3 heteromer function is isolated using pharmacological methods. Cell lines are maintained in DMEM+5% Glutamax, the appropriate level of selective antibiotic, and 10% heat inactivated FBS.
(§2) Functional activity of compounds at the P2X receptor is determined by measuring their ability to inhibit agonist-induced calcium influx. Compounds are tested for antagonist activity against the P2X2/3 chimera, the P2X3 homomer, or the P2X2/3 heteromer. At the start of each screening day, the agonist EC50 is determined. Compound % inhibition or IC50s are subsequently determined using a predetermined agonist concentration (EC50-90 depending on cell line) as a stimulus. The agonists used are αβMeATP, ATP, or other ATP analogs. Compounds may be tested at concentrations ranging from 1 pM to 10 μM.
(§3) To test for antagonist activity, cells expressing the appropriate receptor are seeded onto 96 or 384 well plates 18-24 hours prior to assay. On the day of the assay, cells are loaded with calcium-sensitive fluorescent dye (e.g., Fluo-4 no wash reagent-Invitrogen cat#F36206, or the BD™ PBX Calcium Assay Kit-BD cat #640175) in Hank's Buffered Salt Solution (HBSS) with up to 10 mM supplemental CaCl2. Plates are incubated at 37° C. and then equilibrated at room temperature. Antagonism of agonist-induced calcium influx is measured using a fluorescent imaging plate reader (e.g. FLIPR^TETRA, Molecular Devices, Sunnyvale, Calif.). The assay comprises two stages: a pre-treatment phase followed by a treatment phase. Compounds may be tested as follows: For the pre-treatment phase, 50 μL of 3× concentration of test compound in HBSS is added to cells containing 100 μL of dye loading media to achieve a final concentration of 1× test compound. For the treatment phase, at a set interval after pre-treatment (1-30 minutes), 50 μL of 1× test compound plus 4× agonist solution is added, resulting in a final concentration of 1× compound and 1× agonist. Fluorescence is measured at 0.1-3 second intervals—with an excitation wavelength of 494 nm and an emission wavelength of 515 nm. Responses are measured as (peak fluorescence after agonist addition) minus (baseline fluorescence prior to treatment). Percent inhibition is calculated as follows:
(§4) [formula] IC50 values are determined by analyzing dose response data in a 4 parameter logistic fit using GraphPad Prizm.
(§5) The following compounds have been or can be prepared according to the synthetic methods described herein. A calcium uptake assay was performed as described above and the activity of each compound is expressed as follows: […]

The target in the next experiment is T2, hP2X3 (Homo sapiens, UniProt P56373).
T2 construct: expressed in transfected cells
T2 sequence (P56373 1-397): T1 sequence (P56373 1-397)
Nature of the experiment: Calcium uptake assay (Ca influx), P2X antagonist assay, P2X3 homomer. The class given is cell-based. As to conditions: inhibition of agonist-induced calcium influx.
Description: as §1, §2, §3, §4, §5

`Cc1ccc(-c2cc(C(=O)NCc3ccc(C)nc3)cc(-c3cccc(F)c3F)c2)nc1` [Compound 33, 2′,3′-Difluoro-5-(5-methyl-pyridin-2-yl)-biphenyl-3-carboxylic acid (6-methyl-pyridin-3-ylmethyl)-amide]: the IC50 at hP2X2/3H was 98.7 nM; on hP2X3 it was 122 nM. With `COCC(CO)NC(=O)c1cc(-c2ccc(C)cn2)cc(-c2cccc(F)c2F)c1` (stereo not shown) [Compound 78, 2′,3′-Difluoro-5-(5-methyl-pyridin-2-yl)-biphenyl-3-carboxylic acid (2-hydroxy-1-methoxymethyl-ethyl)-amide], the IC50 on hP2X2/3H turned out to be 7170 nM; at hP2X3, 221 nM. With `Cc1ccc(-c2cc(C(=O)N[C@H](C)c3cnc(C)nc3)cc(-c3ccccc3C(N)=O)c2)nc1` [Compound 47, 5′-(5-Methyl-pyridin-2-yl)-biphenyl-2,3′-dicarboxylic acid 2-amide 3′-{[(R)-1-(2-methyl-pyrimidin-5-yl)-ethyl]-amide}], the IC50 at hP2X2/3H is 36.8 nM; at hP2X3 it was 29.1 nM. The like results for `Cc1ccc(-c2cc(C(=O)NCc3ccc(C)nc3)cc(-c3ccccc3OC(F)(F)F)c2)nc1` [Compound 14, 5-(5-Methyl-pyridin-2-yl)-2′-trifluoromethoxy-biphenyl-3-carboxylic acid (6-methyl-pyridin-3-ylmethyl)-amide] were, in that order, 172 nM and 318 nM. `Cc1ccc(-c2cc(C(=O)NCc3ccc(C)nc3)cc(N3CCC[C@@H]3CO)c2)nc1` [Compound 63, 3-((R)-2-Hydroxymethyl-pyrrolidin-1-yl)-5-(5-methyl-pyridin-2-yl)-N-(6-methyl-pyridin-3-ylmethyl)-benzamide]: the results for the IC50 at hP2X2/3H and at hP2X3 were 25.7 nM and 11.8 nM, respectively.

For the compound `Cc1ccc(-c2cc(C(=O)N[C@H](C)c3cnc(C)nc3)cc(-c3cccc(F)c3C#N)c2)nc1` [Compound 52, 2′-Cyano-3′-fluoro-5-(5-methyl-pyridin-2-yl)-biphenyl-3-carboxylic acid [(R)-1-(2-methyl-pyrimidin-5-yl)-ethyl]-amide], the IC50 on hP2X2/3H came out at 37.5 nM; at hP2X3, 26.2 nM. On to `Cc1ccc(-c2cc(C(=O)NCc3ccc(C)nc3)cc(-c3cccc(N(C)C)c3)c2)cc1` [Compound 23, 3″-Dimethylamino-4-methyl-[1,1′;3′,1″]terphenyl-5′-carboxylic acid (6-methyl-pyridin-3-ylmethyl)-amide], for which the IC50 worked out at 4160 nM at hP2X2/3H and 431 nM on hP2X3. For the compound `Cc1ccc(-c2cc(C(=O)N[C@H](C)c3cnc(C)nc3)cc(N3CCCCC3=O)c2)nc1` [Compound 56, 3-(5-Methyl-pyridin-2-yl)-N-[(R)-1-(2-methyl-pyrimidin-5-yl)-ethyl]-5-(2-oxo-piperidin-1-yl)-benzamide], the figures for the IC50 at hP2X2/3H and on hP2X3 were 418 nM and 95.9 nM, respectively. Take `Cc1ccc(-c2cc(C(=O)N[C@@H](C)CO)cc(N3CCCC3=O)c2)cc1` [Compound 60, 4′-Methyl-5-(2-oxo-pyrrolidin-1-yl)-biphenyl-3-carboxylic acid ((S)-2-hydroxy-1-methyl-ethyl)-amide]: the results for the IC50 at hP2X2/3H and at hP2X3 were 8680 nM and 207 nM, respectively.

For the compound `Cc1ccc(-c2cc(C(=O)NCc3ccc(C)nc3)cc(-c3ccccc3F)c2)nc1` [Compound 15, 2′-Fluoro-5-(5-methyl-pyridin-2-yl)-biphenyl-3-carboxylic acid (6-methyl-pyridin-3-ylmethyl)-amide], the IC50 at hP2X2/3H was 54.9 nM; at hP2X3, 73.2 nM.

`Cc1ccc(-c2cc(C(=O)NCc3ccc(C)nc3)cc(-c3ccccc3)c2)nc1` [Compound 21, 5-(5-Methyl-pyridin-2-yl)-biphenyl-3-carboxylic acid (6-methyl-pyridin-3-ylmethyl)-amide]: the IC50 at hP2X2/3H was 914 nM; on hP2X3, 192 nM.

As to `Cc1ncc([C@@H](C)NC(=O)c2cc(-c3ccccn3)cc(-c3ccccc3C#N)c2)cn1` [Compound 43, 2′-Cyano-5-pyridin-2-yl-biphenyl-3-carboxylic acid [(R)-1-(2-methyl-pyrimidin-5-yl)-ethyl]-amide], the values for the IC50 at hP2X2/3H and on hP2X3 were 126 nM and 24.1 nM, respectively. In the case of `Cc1ccc(-c2cc(C(=O)N[C@@H](C)CO)cc(-c3ccccc3CO)c2)c(C#N)c1` [Compound 88, 2-Cyano-2″-hydroxymethyl-4-methyl-[1,1′;3′,1″]terphenyl-5′-carboxylic acid ((S)-2-hydroxy-1-methyl-ethyl)-amide], on hP2X3, the IC50 stood at 7.1 nM.

Consider `Cc1ccc(-c2cc(C(=O)N[C@@H](C)CO)cc(-c3cc(C)ccc3C#N)c2)nc1` [Compound 71, 2′-Cyano-5′-methyl-5-(5-methyl-pyridin-2-yl)-biphenyl-3-carboxylic acid ((S)-2-hydroxy-1-methyl-ethyl)-amide], for which the IC50 at hP2X2/3H stood at 240 nM; at hP2X3, 43.6 nM. In the case of `Cc1ccc(-c2cc(C(=O)NCc3cnc(C)nc3)cc(N3CCOCC3=O)c2)c(C#N)c1` [Compound 64, 2′-Cyano-4′-methyl-5-(3-oxo-morpholin-4-yl)-biphenyl-3-carboxylic acid (2-methyl-pyrimidin-5-ylmethyl)-amide], the IC50 worked out at 254 nM on hP2X2/3H and 33.2 nM on hP2X3.

Regarding `Cc1ccc(-c2cc(C(=O)NCc3ccc(C)nc3)cc(-c3ccc(C#N)cc3)c2)cc1` [Compound 24, 4″-Cyano-4-methyl-[1,1′;3′,1″]terphenyl-5′-carboxylic acid (6-methyl-pyridin-3-ylmethyl)-amide], at hP2X3, the IC50 came to 626 nM.

Turning to `Cc1ccc(-c2cc(C(=O)N[C@@H](C)CO)cc(-c3ccc(C#N)cc3C)c2)nc1` [Compound 76, 4′-Cyano-2′-methyl-5-(5-methyl-pyridin-2-yl)-biphenyl-3-carboxylic acid ((S)-2-hydroxy-1-methyl-ethyl)-amide], at hP2X3, the IC50 was 77.7 nM. For the compound `Cc1ccc(-c2cc(C(=O)N[C@@H](C)CO)cc(-c3ccccc3CO)c2)nc1` [Compound 82, 2′-Hydroxymethyl-5-(5-methyl-pyridin-2-yl)-biphenyl-3-carboxylic acid ((S)-2-hydroxy-1-methyl-ethyl)-amide], on hP2X3, the IC50 was found to be 33.2 nM.

On to `Cc1ccc(-c2cc(C(=O)N[C@@H](C)CO)cc(-c3c(C)cccc3C#N)c2)nc1` [Compound 72, 6′-Cyano-2′-methyl-5-(5-methyl-pyridin-2-yl)-biphenyl-3-carboxylic acid ((S)-2-hydroxy-1-methyl-ethyl)-amide], for which the IC50 on hP2X3 was found to be 59.4 nM.

Consider `Cc1ccc(-c2cc(C(=O)N[C@@H](C)CO)cc(-c3cccc(F)c3F)c2)nc1` [Compound 70, 2′,3′-Difluoro-5-(5-methyl-pyridin-2-yl)-biphenyl-3-carboxylic acid ((S)-2-hydroxy-1-methyl-ethyl)-amide], for which the concentration for half-maximal inhibition (IC50) at hP2X3 amounted to 43.2 nM.
